Legend:
[1] = system: Vesicular stomatitis virus; format: cell-based; details: E6SM cells; samples average MW 200 KD; FIG. 11
IL-1 receptor = target: T1, IL-1 receptor (Mus musculus, UniProt P13504); test: Inhibition of the binding of 125I-IL-1 to its receptor on 3T3 fibroblasts (radioligand binding); design: species or system mice; details: HAS degree 3, both medium and low MW; 3T3 cells, 1 mg/ml, 125I-IL-1 10 pM, 37° C. 2 hours; FIG. 4
T1 construct: the line of murine fibroblasts 3T3 was used, sensitive to the cytotoxic activity of IL-1, expressing its relative receptor; endogenous in cells; host or cells: 3T3 murine fibroblasts
T1 sequence (P13504 20-576): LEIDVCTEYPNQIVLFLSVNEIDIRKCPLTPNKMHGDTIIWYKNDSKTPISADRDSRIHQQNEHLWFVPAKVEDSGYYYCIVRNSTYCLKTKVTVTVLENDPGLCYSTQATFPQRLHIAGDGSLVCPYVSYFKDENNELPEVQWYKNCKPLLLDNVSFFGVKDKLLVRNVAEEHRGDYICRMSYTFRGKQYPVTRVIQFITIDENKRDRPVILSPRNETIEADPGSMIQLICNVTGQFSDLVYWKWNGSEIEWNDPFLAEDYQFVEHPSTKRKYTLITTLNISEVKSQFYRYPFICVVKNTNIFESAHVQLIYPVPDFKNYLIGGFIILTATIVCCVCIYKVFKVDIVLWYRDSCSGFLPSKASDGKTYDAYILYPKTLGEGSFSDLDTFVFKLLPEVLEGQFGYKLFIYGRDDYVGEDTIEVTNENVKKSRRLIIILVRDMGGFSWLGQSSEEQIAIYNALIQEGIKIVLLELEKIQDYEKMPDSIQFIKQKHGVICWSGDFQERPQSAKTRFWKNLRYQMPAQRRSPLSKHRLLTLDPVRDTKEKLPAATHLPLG
Description: The experimental procedure was effected as described in Chin J et al., J Exp Med, 1987, 165:70-86. In short, the line of murine fibroblasts 3T3 was used, sensitive to the cytotoxic activity of IL-1, expressing its relative receptor. […] At the end of the incubation, the cells were washed with phosphate buffer, then dissolved in 2.5 M of NaOH and counted in a γ-counter.

IL-10 = test: Protein synthesis of IL-10 in human PBMC; format: cell-based; details: 0.1 or 1 mg/ml, 24 hours, FIG. 9 (HAS1, HAS3)
Description: For these experimentations, mononucleate cells of human peripheral blood (PBMC) were adopted, deriving from many different donors for evaluating the effect of HAS on the production of the cytokines listed above, using: • non-sulfated HA (average MW: 200 KD), • HAS1 and HAS3 (prepared as described in Examples 1-3 (average MW: 200 KD). […] At day zero 100,000 cells were seeded per well (using plates with 96 wells) in 200 μl of medium RPMI 1640, to which 10% of fetal bovine serum, HEPES 10 mM, Glutamine 2 mM, 1% Penicillin-Streptomycin 100 U/ml, had been added. The effect of all the samples was evaluated on non-treated PBMC with agents which stimulate the synthesis of cytokines, or stimulated with Lipopolysaccharide LPS (10 μg/ml) (highly pro-inflammatory) or with Phytohemagglutinin PHA (10 μg/ml) (a substance capable of stimulating the lymphocytes to divide themselves), both agents capable of stimulating the synthesis of cytokines. The cells were treated separately with the three compounds at a concentration of 0.1 mg/ml or 1 mg/ml. After 24 hours of incubation at 37° C. […] The quantification of the inflammation mediators was effected by means of the SearchLight® technology, using a Custom Human 9-Plex Array plate following the protocol indicated by the supplier in the technical card.

IL-6 receptor = target: T2, IL-6 receptor (Homo sapiens, UniProt P08887); test: Inhibition of the binding of 125I-IL-6 to its receptor on human myeloma U266 (radioligand binding); details: HAS degree 3, both medium and low MW; U266 cells, 1 mg/ml, 125I-IL-6 0.08 nM, 4° C. 16 hours; FIG. 5
T2 construct: the line of human myeloma U266 was used, sensitive to the cytotoxic activity of IL-6, expressing its relative receptor; endogenous in cells; host or cells: U266 human myeloma cells
T2 sequence (P08887 20-468): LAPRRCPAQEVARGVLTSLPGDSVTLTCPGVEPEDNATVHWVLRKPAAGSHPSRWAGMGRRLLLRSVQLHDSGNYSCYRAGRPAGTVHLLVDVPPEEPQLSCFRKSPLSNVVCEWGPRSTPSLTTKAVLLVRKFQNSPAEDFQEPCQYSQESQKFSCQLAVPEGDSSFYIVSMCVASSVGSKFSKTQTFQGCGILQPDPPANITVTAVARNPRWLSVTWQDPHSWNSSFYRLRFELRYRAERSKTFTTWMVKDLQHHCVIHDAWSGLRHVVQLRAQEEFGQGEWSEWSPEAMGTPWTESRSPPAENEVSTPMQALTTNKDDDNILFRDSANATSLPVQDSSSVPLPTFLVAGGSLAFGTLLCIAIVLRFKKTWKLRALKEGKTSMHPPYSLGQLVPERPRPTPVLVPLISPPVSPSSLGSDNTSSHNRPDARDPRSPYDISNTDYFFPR
Description: The experimental procedure was effected as described in Taga T. et al., J Exp Med, 1987, 166:967-981. In short, the line of human myeloma U266 was used, sensitive to the cytotoxic activity of IL-6, expressing its relative receptor. […] At the end of the incubation, the cells were washed with phosphate buffer, centrifuged at 9,000 rpm and the pellet counted in a γ-counter.

| Compound | antiviral activity vs VSV (inhibition of cytopathogenicity) [1] | inhibition of the binding of IL-1 to its receptor (IL-1 receptor) [%] | production of IL-10 (IL-10) | inhibition of the binding of IL-6 to its receptor (IL-6 receptor) |
| --- | --- | --- | --- | --- |
| Nc1nc2c(ncn2COCCO)c(=O)[nH]1 [acyclovir] | inactive | – | – | – |
| sulfated hyaluronic acid [HAS] | – | 30 | evident stimulus | up to 100% |
